The record followed here is patent US7612211B2, “Benzimidazole TRPV1 inhibitors” (Janssen Pharmaceutica N.V., priority 2006, dated 2009).

In this assay the target is T1, hTRPV1 (Homo sapiens, UniProt Q8NER1).
T1 construct: expressed in transfected cells; host or cells: HEK293
The assay is described as follows: Human TRPV1 (hTRPV1) functional assay, FLIPR intracellular Ca2+, capsaicin challenge. In kind it is cell-based. The following applies: HEK293 cells expressing hTRPV1, capsaicin 0.030 μM challenge; for inhibition at 0.5 µM: test concentration of 0.5 μm, read-out: percent inhibition (symbol a); for IC50: derived from a variety of test concentrations, read-out: IC50 value (symbol c). The protocol:
The functional activity of the test compounds was determined by measuring changes in intracellular calcium concentration using a Ca^++-sensitive fluorescent dye and FLIPR™ technology. Increases in Ca^++ concentration were readily detected upon challenge with capsaicin.
HEK293 cells expressing hTRPV1 were grown on poly-D-lysine coated 384 well black-walled plates (BD 354663) and 1 day later loaded with Calcium 3 Dye for 35 min at 37° C., 5% CO2 and then for 25 min at room temperature, and subsequently tested for agonist-induced increases in intracellular Ca^2+ levels using FLIPR™ technology. Cells were challenged with test compounds (at varying concentrations) and intracellular Ca^2+ was measured for 5 min prior to the addition of capsaicin to all wells to achieve a final concentration of 0.030 μM eliciting ˜80% maximal response.
EC50 or IC50 values were determined from concentration-response studies, which were generated using the average of quadruplicate wells for each data point. The symbol “a” represents percent inhibition obtained at a test concentration of 0.5 μm; the symbol “b” represents percent inhibition obtained at a test concentration of 0.2 μm; the symbol “c” represents an IC50 value (nM) derived from a variety of test concentrations. The term “NA” means that the result is not applicable for a particular compound.

T1 sequence (Q8NER1 whole entry): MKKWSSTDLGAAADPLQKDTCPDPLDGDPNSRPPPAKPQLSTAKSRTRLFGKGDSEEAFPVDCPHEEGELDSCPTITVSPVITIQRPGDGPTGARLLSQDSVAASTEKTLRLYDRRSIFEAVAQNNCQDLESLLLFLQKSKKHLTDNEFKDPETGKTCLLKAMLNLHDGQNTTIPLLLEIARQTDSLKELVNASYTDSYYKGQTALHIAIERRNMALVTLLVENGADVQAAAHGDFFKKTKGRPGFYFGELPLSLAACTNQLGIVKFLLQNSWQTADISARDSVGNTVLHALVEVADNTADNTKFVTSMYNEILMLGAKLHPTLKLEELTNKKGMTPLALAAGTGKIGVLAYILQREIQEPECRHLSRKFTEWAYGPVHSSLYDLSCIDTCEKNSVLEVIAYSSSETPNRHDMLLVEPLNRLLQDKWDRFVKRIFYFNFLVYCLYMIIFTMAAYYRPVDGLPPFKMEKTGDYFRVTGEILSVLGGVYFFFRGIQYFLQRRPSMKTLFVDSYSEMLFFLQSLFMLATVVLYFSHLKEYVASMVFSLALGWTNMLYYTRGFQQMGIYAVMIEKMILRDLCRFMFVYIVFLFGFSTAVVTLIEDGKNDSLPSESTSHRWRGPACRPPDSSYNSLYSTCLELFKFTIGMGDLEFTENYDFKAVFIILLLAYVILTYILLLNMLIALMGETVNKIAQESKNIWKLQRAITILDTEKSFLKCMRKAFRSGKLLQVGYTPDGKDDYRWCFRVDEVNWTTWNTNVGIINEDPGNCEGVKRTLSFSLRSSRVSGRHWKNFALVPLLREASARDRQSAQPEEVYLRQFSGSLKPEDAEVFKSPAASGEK

Broadly, the inhibition is how much of the control response was suppressed. Turning to `NS(=O)(=O)c1ccccc1-c1ccc2[nH]c(COc3ccccc3F)nc2c1` [Cpd 3, 2-[2-(2-fluoro-phenoxymethyl)-1H-benzoimidazol-5-yl]-benzenesulfonamide], the inhibition at 0.5 µM worked out at 43%.
The same measure, in the same setting: under `NS(=O)(=O)c1ccccc1-c1ccc2[nH]c(COc3cccc(F)c3)nc2c1` [Cpd 4, 2-[2-(3-fluoro-phenoxymethyl)-1H-benzoimidazol-5-yl]-benzenesulfonamide] stands 67%.
Same read-out and setting: under `NS(=O)(=O)c1ccccc1-c1ccc2[nH]c(COc3ccc(F)cc3)nc2c1` [Cpd 5, 2-[2-(4-fluoro-phenoxymethyl)-1H-benzoimidazol-5-yl]-benzenesulfonamide] stands 71%.
By IC50 is commonly meant the concentration that inhibits the measured activity by half. With `NS(=O)(=O)c1ccccc1-c1ccc2[nH]c(COc3cccc(Cl)c3)nc2c1` [Cpd 6, 2-[2-(3-chloro-phenoxymethyl)-1H-benzoimidazol-5-yl]-benzenesulfonamide], the IC50 was determined as 102 nM and the inhibition at 0.5 µM came to 87%.
Consider `NS(=O)(=O)c1ccccc1-c1ccc2[nH]c(COc3ccc(Cl)cc3)nc2c1` [Cpd 7, 2-[2-(4-chloro-phenoxymethyl)-1H-benzoimidazol-5-yl]-benzenesulfonamide], for which the IC50 is 13 nM.
Take `NS(=O)(=O)c1ccccc1-c1ccc2[nH]c(COc3ccc(Br)cc3)nc2c1` [Cpd 8, 2-[2-(4-bromo-phenoxymethyl)-1H-benzoimidazol-5-yl]-benzenesulfonamide]: the IC50 came to 6.6 nM.
Same read-out and setting: the figure for `NS(=O)(=O)c1ccccc1-c1ccc2[nH]c(COc3ccc(F)cc3F)nc2c1` [Cpd 9, 2-[2-(2,4-difluoro-phenoxymethyl)-1H-benzoimidazol-5-yl]-benzenesulfonamide] is 110 nM.
For `NS(=O)(=O)c1ccccc1-c1ccc2[nH]c(COc3ccc(F)c(F)c3)nc2c1` [Cpd 10, 2-[2-(3,4-difluoro-phenoxymethyl)-1H-benzoimidazol-5-yl]-benzenesulfonamide], the concentration for half-maximal inhibition (IC50) came out at 120 nM.
The same measure, in the same setting: under `NS(=O)(=O)c1ccccc1-c1ccc2[nH]c(COc3ccc(F)c(Cl)c3)nc2c1` [Cpd 11, 2-[2-(3-chloro-4-fluoro-phenoxymethyl)-1H-benzoimidazol-5-yl]-benzenesulfonamide] stands 38 nM.
As for `NS(=O)(=O)c1ccccc1-c1ccc2[nH]c(COc3ccc(F)c(C(F)(F)F)c3)nc2c1` [Cpd 12, 2-[2-(4-fluoro-3-trifluoromethyl-phenoxymethyl)-1H-benzoimidazol-5-yl]-benzenesulfonamide], the concentration for half-maximal inhibition (IC50) amounted to 18 nM.
On the same count and under the same terms, the figure for `NS(=O)(=O)c1ccccc1-c1ccc2[nH]c(COc3cccc(C(F)(F)F)c3)nc2c1` [Cpd 13, 2-[2-(3-trifluoromethyl-phenoxymethyl)-1H-benzoimidazol-5-yl]-benzenesulfonamide] is 61 nM; for `NS(=O)(=O)c1ccccc1-c1ccc2[nH]c(COc3ccc(F)c(F)c3F)nc2c1` [Cpd 14, 2-[2-(2,3,4-trifluoro-phenoxymethyl)-1H-benzoimidazol-5-yl]-benzenesulfonamide] it is 110 nM; for `NS(=O)(=O)c1ccccc1-c1ccc2[nH]c(COc3cccc(OC(F)(F)F)c3)nc2c1` [Cpd 15, 2-[2-(3-trifluoromethoxy-phenoxymethyl)-1H-benzoimidazol-5-yl]-benzenesulfonamide] it is 25 nM.
Regarding `CNS(=O)(=O)c1ccccc1-c1ccc2[nH]c(COc3ccc(Cl)cc3)nc2c1` [Cpd 18, 2-[2-(4-chloro-phenoxymethyl)-1H-benzoimidazol-5-yl]-N-methyl-benzenesulfonamide], the IC50 stood at 71 nM and the inhibition at 0.5 µM was found to be 97%.
As to `CNS(=O)(=O)c1ccccc1-c1ccc2[nH]c(COc3ccc(S(C)(=O)=O)cc3)nc2c1` [Cpd 19, 2-[2-(4-methanesulfonyl-phenoxymethyl)-1H-benzoimidazol-5-yl]-N-methyl-benzenesulfonamide], the IC50 stood at 8 nM and the inhibition at 0.5 µM came to 100%.
For `CNS(=O)(=O)c1ccccc1-c1ccc2[nH]c(COc3ccc(S(=O)(=O)C(F)(F)F)cc3)nc2c1` [Cpd 20, N-methyl-2-[2-(4-trifluoromethanesulfonyl-phenoxymethyl)-1H-benzoimidazol-5-yl]-benzenesulfonamide] the same measures were 20 nM and 100%.
In the case of `CC(C)(O)c1ccccc1-c1ccc2[nH]c(COc3ccc(OC(F)(F)F)cc3)nc2c1` [Cpd 22, 2-{2-[2-(4-trifluoromethoxy-phenoxymethyl)-1H-benzoimidazol-5-yl]-phenyl}-propan-2-ol], the IC50 turned out to be 4 nM and the inhibition at 0.5 µM came out at 100%.
In the case of `CC(C)(O)c1ccccc1-c1ccc2[nH]c(COc3ccc(Cl)cc3)nc2c1` [Cpd 23, 2-{2-[2-(4-chloro-phenoxymethyl)-1H-benzoimidazol-5-yl]-phenyl}-propan-2-ol], the IC50 is 19 nM and the inhibition at 0.5 µM stood at 100%.
For `CC(C)(O)c1ccccc1-c1ccc2[nH]c(COc3cccc(C(F)(F)F)c3)nc2c1` [Cpd 24, 2-{2-[2-(3-trifluoromethyl-phenoxymethyl)-1H-benzoimidazol-5-yl]-phenyl}-propan-2-ol] the same measures were 156 nM and 92%.
For `CC(C)(O)c1ccccc1-c1ccc2[nH]c(COc3ccc(S(C)(=O)=O)cc3)nc2c1` [Cpd 25, 2-{2-[2-(4-methanesulfonyl-phenoxymethyl)-1H-benzoimidazol-5-yl]-phenyl}-propan-2-ol] the same measures were 13 nM and 100%.
For `NS(=O)(=O)c1ccccc1-c1ccc2[nH]c(COc3ccccc3)nc2c1` [Cpd 26, 2-(2-phenoxymethyl-1H-benzoimidazol-5-yl)-benzenesulfonamide] the same measures were 177 nM and 87%.
Consider `Cc1ccc(OCc2nc3cc(-c4ccccc4S(N)(=O)=O)ccc3[nH]2)cc1` [Cpd 27, 2-(2-p-tolyloxymethyl-1H-benzoimidazol-5-yl)-benzenesulfonamide], for which the IC50 amounted to 12 nM and the inhibition at 0.5 µM amounted to 98%.
As to `CC(C)c1ccc(OCc2nc3cc(-c4ccccc4S(N)(=O)=O)ccc3[nH]2)cc1` [Cpd 28, 2-[2-(4-isopropyl-phenoxymethyl)-1H-benzoimidazol-5-yl]-benzenesulfonamide], the 50% inhibitory concentration (IC50) came to 8.9 nM and the inhibition at 0.5 µM came out at 98%.
Consider `NS(=O)(=O)c1ccccc1-c1ccc2[nH]c(COc3ccc(Cl)c(Cl)c3)nc2c1` [Cpd 29, 2-[2-(3,4-dichloro-phenoxymethyl)-1H-benzoimidazol-5-yl]-benzenesulfonamide], for which the half-inhibitory concentration (IC50) is 22 nM and the inhibition at 0.5 µM is 98%.
`NS(=O)(=O)c1ccccc1-c1ccc2[nH]c(COc3ccc(Cl)c(C(F)(F)F)c3)nc2c1` [Cpd 30, 2-[2-(4-chloro-3-trifluoromethyl-phenoxymethyl)-1H-benzoimidazol-5-yl]-benzenesulfonamide]: the IC50 was 13 nM and the inhibition at 0.5 µM came out at 99%.
Regarding `NS(=O)(=O)c1ccccc1-c1ccc2[nH]c(COc3cc(C(F)(F)F)cc(C(F)(F)F)c3)nc2c1` [Cpd 31, 2-[2-(3,5-bis-trifluoromethyl-phenoxymethyl)-1H-benzoimidazol-5-yl]-benzenesulfonamide], the IC50 amounted to 10.6 nM and the inhibition at 0.5 µM was found to be 97%.
For `CC(C)(C)c1ccc(OCc2nc3cc(-c4ccccc4S(N)(=O)=O)ccc3[nH]2)cc1` [Cpd 32, 2-[2-(4-tert-butyl-phenoxymethyl)-1H-benzoimidazol-5-yl]-benzenesulfonamide], the concentration for half-maximal inhibition (IC50) was found to be 6 nM. For the same compound, the inhibition at 0.2 µM (test concentration of 0.2 μm, read-out: percent inhibition (symbol b)) came to 100%.
As to `CCOc1ccc(OCc2nc3cc(-c4ccccc4S(N)(=O)=O)ccc3[nH]2)cc1` [Cpd 33, 2-[2-(4-ethoxy-phenoxymethyl)-1H-benzoimidazol-5-yl]-benzenesulfonamide], the IC50 came to 44 nM and the inhibition at 0.5 µM was found to be 100%.
Taken in the same sequence, the figures for `NS(=O)(=O)c1ccccc1-c1ccc2[nH]c(COc3ccc(SC(F)(F)F)cc3)nc2c1` [Cpd 34, 2-[2-(4-trifluoromethylsulfanyl-phenoxymethyl)-1H-benzoimidazol-5-yl]-benzenesulfonamide] were 13 nM and 100%.
Consider `CC(=O)c1ccc(OCc2nc3cc(-c4ccccc4S(N)(=O)=O)ccc3[nH]2)cc1` [Cpd 35, 2-[2-(4-acetyl-phenoxymethyl)-1H-benzoimidazol-5-yl]-benzenesulfonamide], for which the IC50 stood at 16 nM and the inhibition at 0.5 µM worked out at 97%.
As to `NS(=O)(=O)c1ccccc1-c1ccc2[nH]c(COc3ccc4ccccc4c3)nc2c1` [Cpd 36, 2-[2-(naphthalen-2-yloxymethyl)-1H-benzoimidazol-5-yl]-benzenesulfonamide], the IC50 was 32 nM and the inhibition at 0.5 µM was found to be 98%.
With `NS(=O)(=O)c1ccccc1-c1ccc2[nH]c(COc3ccc4ncccc4c3)nc2c1` [Cpd 37, 2-[2-(quinolin-6-yloxymethyl)-1H-benzoimidazol-5-yl]-benzenesulfonamide], the inhibition at 0.5 µM worked out at 50%.
